Results: US20240101531A1, “PYRIDINAMINE DERIVATIVES AND THEIR USE AS POTASSIUM CHANNEL MODULATORS” (Xenon Pharmaceuticals Inc., priority 2022, published 2024)

target: human KV7.2/KV7.3 (Homo sapiens (Human), UniProt O43525+O43526); test: Potassium flux assay (IPG-2 AM dye); format: cell-based; settings: TREX HEK 293 or HEK 293 cells expressing human KV7.2/KV7.3; arithmetic mean values
Procedure, shortened: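 EC50 from 16 concentrations (2-fold dilutions, top 30 μM), scaled between DMSO baseline and a known KV7.x modulator maximum. Signal is IPG-2 AM fluorescence (ex 530/em 558 nm) after 10 mM KCl challenge buffer addition, following 20 min room-temperature compound exposure of HEK 293 or TREX HEK 293 cells stably expressing human KV7.2/KV7.3.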

Row | SMILES | EC50
1 | C[C@@]1(COc2ccc3c(Nc4ccc(Cl)nc4)nccc3c2)CCCO1 [Example 303, (S)—N-(6-chloropyridin-3-yl)-6-((2-methyltetrahydrofuran-2-yl)methoxy)isoquinolin-1-amine] | 1000 to 10000 nM
2 | Clc1ccc(Nc2nccc3cc(COc4cn[nH]c4)ccc23)cn1 [Example 304, 6-(((1H-pyrazol-4-yl)oxy)methyl)-N-(6-chloropyridin-3-yl)isoquinolin-1-amine] | 1000 to 10000 nM
3 | COCC1(COc2ccc3c(Nc4ccc(Cl)nc4)nccc3c2)COC1 [Example 306, N-(6-chloropyridin-3-yl)-6-((3-(methoxymethyl)oxetan-3-yl)methoxy)isoquinolin-1-amine] | < 1000 nM
4 | Cc1ncc(Nc2nccc3cc(OCc4cncnc4)ccc23)cn1 [Example 308, N-(2-methylpyrimidin-5-yl)-6-(pyrimidin-5-ylmethoxy)isoquinolin-1-amine] | 1000 to 10000 nM
5 | CC(=O)N1CC(COc2ccc3c(Nc4ccc(Cl)nc4)nccc3c2)C1 [Example 309, 1-(3-(((1-((6-chloropyridin-3-yl)amino)isoquinolin-6-yl)oxy)methyl)azetidin-1-yl)ethan-1-one] | 1000 to 10000 nM
6 | FC(F)(F)CN1CC(COc2ccc3c(Nc4ccc(Cl)nc4)nccc3c2)C1 [Example 310, N-(6-chloropyridin-3-yl)-6-((1-(2,2,2-trifluoroethyl)azetidin-3-yl)methoxy)isoquinolin-1-amine] | 1000 to 10000 nM
7 | Cn1cc(Oc2ccc3c(Nc4ccc(Cl)nc4)nccc3c2)cn1 [Example 311, N-(6-chloropyridin-3-yl)-6-((1-methyl-1H-pyrazol-4-yl)oxy)isoquinolin-1-amine] | 1000 to 10000 nM
8 | C[C@@H]1CN(CCOc2ccc3c(Nc4ccc(Cl)nc4)nccc3c2)C[C@H](C)O1 [Example 319, N-(6-chloropyridin-3-yl)-6-(2-((2S,6R)-2,6-dimethylmorpholino)ethoxy)isoquinolin-1-amine] | 1000 to 10000 nM
9 | COC(=O)C1COCCN1CCOc1ccc2c(Nc3ccc(Cl)nc3)nccc2c1 (stereo not shown) [Example 320, methyl 4-(2-((1-((6-chloropyridin-3-yl)amino)isoquinolin-6-yl)oxy)ethyl)morpholine-3-carboxylate] | 1000 to 10000 nM
10 | C[C@H]1COCCN1CCOc1ccc2c(Nc3ccc(Cl)nc3)nccc2c1 [Example 321, (S)-N-(6-chloropyridin-3-yl)-6-(2-(3-methylmorpholino)ethoxy)isoquinolin-1-amine] | 1000 to 10000 nM
11 | C[C@@H]1COCCN1CCOc1ccc2c(Nc3ccc(Cl)nc3)nccc2c1 [Example 322, (R)-N-(6-chloropyridin-3-yl)-6-(2-(3-methylmorpholino)ethoxy)isoquinolin-1-amine] | 1000 to 10000 nM
12 | CC1CN(CCOc2ccc3c(Nc4ccc(Cl)nc4)nccc3c2)CCO1 (stereo not shown) [Example 323, N-(6-chloropyridin-3-yl)-6-(2-(2-methylmorpholino)ethoxy)isoquinolin-1-amine] | 1000 to 10000 nM
13 | Cc1ncc(Nc2nccc3cc(OCc4cnn(C)c4)ccc23)cc1O [Example 324, 2-methyl-5-((6-((1-methyl-1H-pyrazol-4-yl)methoxy)isoquinolin-1-yl)amino)pyridin-3-ol] | 1000 to 10000 nM
14 | FC(F)C1(COc2ccc3c(Nc4ccc(Cl)nc4)nccc3c2)CC1 [Example 326, N-(6-chloropyridin-3-yl)-6-((1-(difluoromethyl)cyclopropyl)methoxy)isoquinolin-1-amine] | < 1000 nM
15 | FC(F)C1(COc2ccc3c(Nc4ccc(Cl)nc4)nccc3c2)COC1 [Example 327, N-(6-chloropyridin-3-yl)-6-((3-(difluoromethyl)oxetan-3-yl)methoxy)isoquinolin-1-amine] | < 1000 nM
16 | CCC1(COc2ccc3c(Nc4ccc(Cl)nc4)nccc3c2)COC1 [Example 328, N-(6-chloropyridin-3-yl)-6-((3-ethyloxetan-3-yl)methoxy)isoquinolin-1-amine] | < 1000 nM
17 | OCC1(COc2ccc3c(Nc4ccc(Cl)nc4)nccc3c2)COC1 [Example 329, (3-(((1-((6-chloropyridin-3-yl)amino)isoquinolin-6-yl)oxy)methyl)oxetan-3-yl)methanol] | 1000 to 10000 nM
18 | OC12CC3CC(C1)CC(Oc1ccc4c(Nc5ccc(Cl)nc5)nccc4c1)(C3)C2 [Example 331, 3-((1-((6-chloropyridin-3-yl)amino)isoquinolin-6-yl)oxy)adamantan-1-ol] | < 1000 nM
19 | Clc1ccc(Nc2nccc3cc(OCC4CC45CCC5)ccc23)cn1 (stereo not shown) [Example 332, N-(6-chloropyridin-3-yl)-6-(spiro[2.3]hexan-1-ylmethoxy)isoquinolin-1-amine] | 1000 to 10000 nM
20 | N#CC1(COc2ccc3c(Nc4ccc(Cl)nc4)nccc3c2)CC2(COC2)C1 [Example 333, 6-(((1-((6-chloropyridin-3-yl)amino)isoquinolin-6-yl)oxy)methyl)-2-oxaspiro[3.3]heptane-6-carbonitrile] | < 1000 nM
21 | Clc1ccc(Nc2nccc3cc(OCc4cn[nH]c4)ccc23)cn1 [Example 334, 6-((1H-pyrazol-4-yl)methoxy)-N-(6-chloropyridin-3-yl)isoquinolin-1-amine] | < 1000 nM
22 | CC(Oc1ccc2c(Nc3ccc(Cl)nc3)nccc2c1)c1cn[nH]c1 (stereo not shown) [Example 335, 6-(1-(1H-pyrazol-4-yl)ethoxy)-N-(6-chloropyridin-3-yl)isoquinolin-1-amine] | 1000 to 10000 nM
23 | COCCn1cc(COc2ccc3c(Nc4ccc(Cl)nc4)nccc3c2)cn1 [Example 336, N-(6-chloropyridin-3-yl)-6-((1-(2-methoxyethyl)-1H-pyrazol-4-yl)methoxy)isoquinolin-1-amine] | 1000 to 10000 nM
24 | Clc1ccc(Nc2nccc3cc(OCc4c[nH]nc4Cl)ccc23)cn1 [Example 337, 6-((3-chloro-1H-pyrazol-4-yl)methoxy)-N-(6-chloropyridin-3-yl)isoquinolin-1-amine] | 1000 to 10000 nM
25 | Cc1n[nH]c(C)c1COc1ccc2c(Nc3ccc(Cl)nc3)nccc2c1 [Example 338, N-(6-chloropyridin-3-yl)-6-((3,5-dimethyl-1H-pyrazol-4-yl)methoxy)isoquinolin-1-amine] | 1000 to 10000 nM
26 | Cc1ncc(Nc2nccc3cc(O[C@H]4CCC[C@@H](O)C4)ccc23)cn1 [Example 339, (1R,3S)-3-((1-((2-methylpyrimidin-5-yl)amino)isoquinolin-6-yl)oxy)cyclohexan-1-ol] | < 1000 nM
27 | Cc1ncc(Nc2nccc3cc(O[C@@H]4CCC[C@H](O)C4)ccc23)cn1 [Example 340, (1 S,3R)-3-((1-((2-methylpyrimidin-5-yl)amino)isoquinolin-6-yl)oxy)cyclohexan-1-ol] | < 1000 nM
28 | CC1(CCc2ccc3c(Nc4ccc(Cl)nc4)nccc3c2)COC1 [Example 341, N-(6-chloropyridin-3-yl)-6-(2-(3-methyloxetan-3-yl)ethyl)isoquinolin-1-amine] | 1000 to 10000 nM

More lines, now with the values ahead:

Row | EC50 | SMILES
29 | 1000 to 10000 nM | Cn1cnc(COc2ccc3c(Nc4ccc(Cl)nc4)nccc3c2)n1 [Example 307, N-(6-chloropyridin-3-yl)-6-((1-methyl-1H-1,2,4-triazol-3-yl)methoxy)isoquinolin-1-amine]
30 | 1000 to 10000 nM | CC(=O)N1CCC(Oc2ccc3c(Nc4ccc(Cl)nc4)nccc3c2)CC1 [Example 312, 1-(4-((1-((6-chloropyridin-3-yl)amino)isoquinolin-6-yl)oxy)piperidin-1-yl)ethan-1-one]
31 | 1000 to 10000 nM | Clc1ccc(Nc2nccc3cc(OC4CCN(C5COC5)CC4)ccc23)cn1 [Example 313, N-(6-chloropyridin-3-yl)-6-((1-(oxetan-3-yl)piperidin-4-yl)oxy)isoquinolin-1-amine]
32 | 1000 to 10000 nM | Clc1ccc(Nc2nccc3cc(OC4CCN(Cc5ncccn5)CC4)ccc23)cn1 [Example 314, N-(6-chloropyridin-3-yl)-6-((1-(pyrimidin-2-ylmethyl)piperidin-4-yl)oxy)isoquinolin-1-amine]
33 | 1000 to 10000 nM | FC(F)CN1CCC(Oc2ccc3c(Nc4ccc(Cl)nc4)nccc3c2)CC1 [Example 315, N-(6-chloropyridin-3-yl)-6-((1-(2,2-difluoroethyl)piperidin-4-yl)oxy)isoquinolin-1-amine]
34 | < 1000 nM | CC(=O)N[C@H]1CC[C@@H](Oc2ccc3c(Nc4ccc(Cl)nc4)nccc3c2)CC1 [Example 316, N-(cis-4-((1-((6-chloropyridin-3-yl)amino)isoquinolin-6-yl)oxy)cyclohexyl)acetamide]
35 | 1000 to 10000 nM | CC(=O)N[C@H]1CC[C@H](Oc2ccc3c(Nc4ccc(Cl)nc4)nccc3c2)CC1 [Example 317, N-(trans-4-((1-((6-chloropyridin-3-yl)amino)isoquinolin-6-yl)oxy)cyclohexyl)acetamide]
36 | < 1000 nM | CC(=O)N1CCC(COc2ccc3c(Nc4ccc(Cl)nc4)nccc3c2)CC1 [Example 318, 1-(4-(((1-((6-chloropyridin-3-yl)amino)isoquinolin-6-yl)oxy)methyl)piperidin-1-yl)ethan-1-one]
37 | 1000 to 10000 nM | FC(F)(F)CN1CC(Oc2ccc3c(Nc4ccc(Cl)nc4)nccc3c2)C1 [Example 325, N-(6-chloropyridin-3-yl)-6-((1-(2,2,2-trifluoroethyl)azetidin-3-yl)oxy)isoquinolin-1-amine]
38 | 1000 to 10000 nM | N#C[C@H]1CCC[C@H](Oc2ccc3c(Nc4ccc(Cl)nc4)nccc3c2)C1 [Example 342, (1 S,3S)-3-((1-((6-chloropyridin-3-yl)amino)isoquinolin-6-yl)oxy)cyclohexane-1-carbonitrile]
39 | 1000 to 10000 nM | N#C[C@@H]1CCC[C@H](Oc2ccc3c(Nc4ccc(Cl)nc4)nccc3c2)C1 [Example 343, (1R,3S)-3-((1-((6-chloropyridin-3-yl)amino)isoquinolin-6-yl)oxy)cyclohexane-1-carbonitrile]
40 | 1000 to 10000 nM | N#C[C@@H]1CCC[C@@H](Oc2ccc3c(Nc4ccc(Cl)nc4)nccc3c2)C1 [Example 344, (1R,3R)-3-((1-((6-chloropyridin-3-yl)amino)isoquinolin-6-yl)oxy)cyclohexane-1-carbonitrile]
